Data published in paper PMC3479105, “K-134, a Phosphodiesterase 3 Inhibitor, Prevents Brain Damage by Inhibiting Thrombus Formation in a Rat Cerebral Infarction Model” (PLoS ONE, 2012).
Like-named read-outs stand apart in the source and are kept apart here.

How the values were obtained:
[1] = Electron spin resonance (ESR) radical scavenging; conditions: ESR experiments, data not shown
From the text: In the photothrombotic cerebral infarction model, photoactivation of rose bengal by illumination with green light results in reactive oxygen intermediates (predominantly singlet oxygen and superoxide). […] Therefore, we concluded that the observed inhibitory effects of K-134 on photothrombosis in this model are relevant to its antiplatelet activity but not radical scavenging activity.

platelets = system: platelets; set-up: method as in earlier work; conditions: cited from earlier work
[2] = Pharmacokinetics of cilostazol and its active metabolites in rats; format: in vivo, rat; conditions: single oral cilostazol 300 mg/kg, non-fasting male SD rats, n = 3; parent and metabolites
Method: Pharmacokinetic variables (Cmax, AUC, Tmax and T1/2) were calculated from the plasma drug concentration-time curve. Cilostazol was orally administered to rats under non-fasting conditions at a single dose of 300 mg/kg to determine the concentration-time profile in serum (n = 3). Values are means (± SEM). […]

[3] = set-up: method as in PMID 10702882; conditions: human healthy male, single dose 100 mg of cilostazol, cited from earlier work
[4] = converted from µg/L, read-out: Cmax

Structure (SMILES)	scavenging activities against singlet oxygen and superoxide anion radical [1]	antiplatelet activity, times more potent than cilostazol (platelets)	AUC0-24h [2]	Cmax [2]	T1/2 [2]	Tmax [2]	Cmax [3, 4]	AUC0–72 h ([3]; converted from µg/L·h)	AUC0–72 h [3]	Cmax [3]	antiplatelet activity, times less potent than cilostazol (platelets)
O=c1ccc2cc(OCCCCc3nnnn3C3CCCCC3)ccc2[nH]1 [OPC-13015]	did not show scavenging activities	3 times	18.3 µM·h	1400 nM	6.8 h	3.2 h	330 nM	6.59 µM·h	~2423 ng·h/mL	~122 ng/mL	
O=C1CCc2cc(OCCCCc3nnnn3C3CCC(O)CC3)ccc2N1 (stereo not drawn) [OPC-13213]			127.3 µM·h	9100 nM	6.1 h		170 nM	1.60 µM·h	~617 ng·h/mL	~64 ng/mL	3 times
